Key:
Assay type in all cases: binding
[1] = target: T1, BRD4 bromodomain domain I [BRD4(1)] (Homo sapiens, UniProt O60885); assay: BRD4 bromodomain domain 1 inhibition assay (TR-FRET); details: screening concentration 10 μM
T1 construct: BRD4 bromodomain domain I [BRD4(1)]; purchased Cayman Chemicals
Summary of the method: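 0.5% DMSO, in triplicate, using Cayman BRD4(1) TR-FRET protocol with slight modification. 670/620 nm ratio normalized to 10 μM JQ1, with DMSO control set as 0% inhibition.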

[2] = target: T2, AurA (Homo sapiens, UniProt O14965); assay: Probe-based (AX9989) kinase profiling in Jurkat lysate: AurA; details: read-out: Kinase inhibition % at indicated screening concentration: AurA; for inhibition at 1 µM: screening concentration 1.0 μM; for inhibition at 0.1 µM: screening concentration 0.1 μM
T2 construct: screened for activity against several kinases in Jurkat cells; endogenous in cells; host or cells: Jurkat cell lysate
T2 sequence (O14965 1-403): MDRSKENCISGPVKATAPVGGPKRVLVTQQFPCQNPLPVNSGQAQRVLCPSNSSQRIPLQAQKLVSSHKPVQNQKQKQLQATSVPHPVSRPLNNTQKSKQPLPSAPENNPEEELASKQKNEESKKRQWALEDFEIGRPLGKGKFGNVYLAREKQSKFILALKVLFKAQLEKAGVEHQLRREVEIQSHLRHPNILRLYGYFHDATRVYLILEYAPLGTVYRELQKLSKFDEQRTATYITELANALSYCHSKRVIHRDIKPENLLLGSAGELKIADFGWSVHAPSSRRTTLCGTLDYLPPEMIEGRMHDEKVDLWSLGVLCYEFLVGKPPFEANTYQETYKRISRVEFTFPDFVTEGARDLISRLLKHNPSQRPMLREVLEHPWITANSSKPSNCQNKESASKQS
Summary of the method: (§1)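 Read-out: LC/MS intensity of desthiobiotinylated kinase active-site peptides, percent inhibition normalized to no-compound lysate. Jurkat lysate with 20 mM MnCl2 received compound for 15 min at room temperature, then 5 μM AX9989 probe; duplicates.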

[3] = test system: AMPKa1 or AMPKa2; assay: Probe-based (AX9989) kinase profiling in Jurkat lysate: AMPKa1 or AMPKa2
Summary of the method: as §1

[4] = target: T3, ERK5 (Homo sapiens, UniProt Q13164); assay: Probe-based (AX9989 acyl phosphate ATP probe) kinase profiling in Jurkat lysate: ERK5; details: for IC50: calculated from percent inhibition of AX9989 labeling and the screening concentration, Jurkat lysate; for inhibition at 1 µM: screening concentration 1.0 μM; for inhibition at 1 µM / inhibition at 0.1 µM: read-out: Kinase inhibition % at indicated screening concentration: ERK5; for inhibition at 0.1 µM: screening concentration 0.1 μM
T3 construct: screened for activity against several kinases in Jurkat cells; endogenous in cells; host or cells: Jurkat cell lysate
Summary of the method: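 ERK5 IC50 values came from percent inhibition at the screening concentration, measured as loss of LC/MS signal of probe-labelled active-site peptides. Compound was added for 15 min at room temperature to Jurkat lysate (5 mg/ml, 20 mM MnCl2) before labelling with AX9989 ATP acyl phosphate probe at 5 μM.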

[5] = test system: ABL or ARG; assay: Probe-based (AX9989) kinase profiling in Jurkat lysate: ABL or ARG
Summary of the method: as §1

[6] = target: T4, JAK1 (Homo sapiens, UniProt P23458); assay: Probe-based (AX9989) kinase profiling in Jurkat lysate: JAK1; details: read-out: Kinase inhibition % at indicated screening concentration: JAK1; for inhibition at 1 µM: screening concentration 1.0 μM; for inhibition at 0.1 µM: screening concentration 0.1 μM
T4 construct: screened for activity against several kinases in Jurkat cells; endogenous in cells; host or cells: Jurkat cell lysate
Summary of the method: as §1

[7] = target: T5, ACK (Homo sapiens, UniProt Q07912); assay: Probe-based (AX9989) kinase profiling in Jurkat lysate: ACK; details: read-out: Kinase inhibition % at indicated screening concentration: ACK; for inhibition at 1 µM: screening concentration 1.0 μM; for inhibition at 0.1 µM: screening concentration 0.1 μM
T5 construct: screened for activity against several kinases in Jurkat cells; endogenous in cells; host or cells: Jurkat cell lysate
Summary of the method: as §1

[8] = test system: AurB or AurC; assay: Probe-based (AX9989) kinase profiling in Jurkat lysate: AurB or AurC
Summary of the method: as §1

T3 sequence (Q13164 whole entry): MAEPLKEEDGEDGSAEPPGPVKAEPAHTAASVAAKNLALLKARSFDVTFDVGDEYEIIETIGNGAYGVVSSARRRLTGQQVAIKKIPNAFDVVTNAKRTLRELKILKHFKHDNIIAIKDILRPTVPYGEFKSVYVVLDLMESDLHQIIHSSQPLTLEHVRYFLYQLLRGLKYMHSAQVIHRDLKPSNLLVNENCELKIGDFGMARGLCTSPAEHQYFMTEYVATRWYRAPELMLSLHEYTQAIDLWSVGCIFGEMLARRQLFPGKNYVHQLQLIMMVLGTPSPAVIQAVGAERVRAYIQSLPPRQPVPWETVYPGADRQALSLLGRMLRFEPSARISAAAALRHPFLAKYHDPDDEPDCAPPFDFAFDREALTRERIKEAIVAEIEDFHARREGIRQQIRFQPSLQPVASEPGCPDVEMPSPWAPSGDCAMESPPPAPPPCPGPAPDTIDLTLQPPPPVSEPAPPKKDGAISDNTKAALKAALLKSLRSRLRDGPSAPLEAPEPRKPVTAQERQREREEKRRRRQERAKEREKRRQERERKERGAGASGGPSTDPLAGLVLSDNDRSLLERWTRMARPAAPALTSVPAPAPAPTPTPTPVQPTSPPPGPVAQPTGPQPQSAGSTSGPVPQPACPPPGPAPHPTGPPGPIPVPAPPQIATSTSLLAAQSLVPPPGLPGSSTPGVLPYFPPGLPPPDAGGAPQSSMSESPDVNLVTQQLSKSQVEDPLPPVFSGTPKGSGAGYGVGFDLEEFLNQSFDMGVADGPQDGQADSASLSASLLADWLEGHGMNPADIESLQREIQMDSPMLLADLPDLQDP
T5 sequence (Q07912 whole entry): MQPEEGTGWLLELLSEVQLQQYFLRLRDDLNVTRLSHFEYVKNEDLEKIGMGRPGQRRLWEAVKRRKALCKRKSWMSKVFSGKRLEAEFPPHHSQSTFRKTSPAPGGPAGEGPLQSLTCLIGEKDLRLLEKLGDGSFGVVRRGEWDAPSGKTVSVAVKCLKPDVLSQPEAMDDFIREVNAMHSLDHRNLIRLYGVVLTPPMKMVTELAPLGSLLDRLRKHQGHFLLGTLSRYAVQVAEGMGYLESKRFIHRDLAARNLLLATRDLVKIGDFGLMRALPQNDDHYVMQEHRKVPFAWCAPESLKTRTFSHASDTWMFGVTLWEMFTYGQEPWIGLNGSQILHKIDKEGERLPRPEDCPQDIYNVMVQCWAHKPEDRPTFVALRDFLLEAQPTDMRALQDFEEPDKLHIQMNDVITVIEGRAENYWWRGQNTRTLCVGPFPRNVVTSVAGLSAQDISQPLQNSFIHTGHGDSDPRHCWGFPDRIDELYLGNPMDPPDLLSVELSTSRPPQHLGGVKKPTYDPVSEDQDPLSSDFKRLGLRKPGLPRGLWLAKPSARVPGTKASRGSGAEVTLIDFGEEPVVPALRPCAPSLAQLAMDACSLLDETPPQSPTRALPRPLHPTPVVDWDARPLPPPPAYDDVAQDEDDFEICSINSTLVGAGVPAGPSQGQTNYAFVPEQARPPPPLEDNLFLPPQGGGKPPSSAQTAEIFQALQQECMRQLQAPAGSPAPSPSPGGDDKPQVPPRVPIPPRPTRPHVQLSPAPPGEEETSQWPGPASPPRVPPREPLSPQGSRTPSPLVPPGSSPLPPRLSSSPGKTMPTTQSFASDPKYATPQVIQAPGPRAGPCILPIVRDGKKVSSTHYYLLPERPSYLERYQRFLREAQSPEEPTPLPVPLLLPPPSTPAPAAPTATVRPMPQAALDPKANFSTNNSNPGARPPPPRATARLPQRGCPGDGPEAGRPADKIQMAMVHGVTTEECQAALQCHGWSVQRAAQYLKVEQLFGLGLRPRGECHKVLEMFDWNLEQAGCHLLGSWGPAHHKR
T4 sequence (P23458 whole entry): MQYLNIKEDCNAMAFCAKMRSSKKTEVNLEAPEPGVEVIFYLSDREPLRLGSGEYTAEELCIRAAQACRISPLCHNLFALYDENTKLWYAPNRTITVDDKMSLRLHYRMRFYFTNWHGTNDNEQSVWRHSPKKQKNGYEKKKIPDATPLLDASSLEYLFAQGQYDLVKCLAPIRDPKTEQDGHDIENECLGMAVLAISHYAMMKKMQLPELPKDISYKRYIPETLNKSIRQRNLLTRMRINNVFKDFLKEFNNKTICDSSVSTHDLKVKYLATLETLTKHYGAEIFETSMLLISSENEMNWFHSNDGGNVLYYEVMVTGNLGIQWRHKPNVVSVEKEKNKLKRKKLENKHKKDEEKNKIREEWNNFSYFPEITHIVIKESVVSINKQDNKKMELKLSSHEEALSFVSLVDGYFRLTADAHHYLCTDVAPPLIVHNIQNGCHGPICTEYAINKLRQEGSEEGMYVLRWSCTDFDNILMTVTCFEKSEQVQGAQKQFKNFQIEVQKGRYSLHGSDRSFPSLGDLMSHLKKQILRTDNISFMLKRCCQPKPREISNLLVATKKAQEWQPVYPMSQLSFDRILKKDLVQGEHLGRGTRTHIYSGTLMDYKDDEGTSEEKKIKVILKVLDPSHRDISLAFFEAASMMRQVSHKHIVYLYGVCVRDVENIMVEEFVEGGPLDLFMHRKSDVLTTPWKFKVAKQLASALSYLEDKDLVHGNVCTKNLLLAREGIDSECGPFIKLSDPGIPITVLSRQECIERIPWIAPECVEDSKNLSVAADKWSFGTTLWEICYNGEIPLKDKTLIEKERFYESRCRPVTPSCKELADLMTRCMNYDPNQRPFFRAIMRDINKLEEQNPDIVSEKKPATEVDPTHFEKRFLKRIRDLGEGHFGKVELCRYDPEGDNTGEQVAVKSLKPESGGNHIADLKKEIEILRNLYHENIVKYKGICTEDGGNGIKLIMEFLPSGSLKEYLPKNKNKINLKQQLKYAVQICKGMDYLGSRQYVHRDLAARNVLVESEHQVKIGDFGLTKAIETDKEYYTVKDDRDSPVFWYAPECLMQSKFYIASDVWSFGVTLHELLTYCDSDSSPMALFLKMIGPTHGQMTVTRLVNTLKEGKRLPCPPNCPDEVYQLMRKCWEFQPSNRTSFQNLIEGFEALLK

SMILES	inhibition at 10 µM [1] [%]	inhibition at 1 µM [2] [%]	Kinase inhibition % at indicated screening concentration: AMPKa1 or AMPKa2 ([3]; screening concentration 1.0 μM)	IC50 [4] [nM]	inhibition at 1 µM [4] [%]	Kinase inhibition % at indicated screening concentration: ABL or ARG ([5]; screening concentration 1.0 μM)	inhibition at 1 µM [6] [%]	inhibition at 1 µM [7] [%]	Kinase inhibition % at indicated screening concentration: AurB or AurC ([8]; screening concentration 1.0 μM)	inhibition at 0.1 µM [2] [%]	Kinase inhibition % at indicated screening concentration: AMPKa1 or AMPKa2 ([3]; screening concentration 0.1 μM)	inhibition at 0.1 µM [4] [%]	Kinase inhibition % at indicated screening concentration: ABL or ARG ([5]; screening concentration 0.1 μM)	inhibition at 0.1 µM [6] [%]	inhibition at 0.1 µM [7] [%]	Kinase inhibition % at indicated screening concentration: AurB or AurC ([8]; screening concentration 0.1 μM)
CCOc1cc(C(=O)NCCN2CCN(C)CC2)ccc1Nc1cc2c(cn1)N(C)C(=O)c1ccccc1N2C [Compound 44]	70 to 85	≤ 35	E (E is ≦35%)	101 to 500	75 to 90	E (E is ≦35%)	≤ 35	≤ 35	E (E is ≦35%)	–	–	–	–	–	–	–
CCOc1cc(C(=O)N2CCN(C3CC3)CC2)ccc1Nc1cc2c(cn1)N(C)C(=O)c1ccccc1N2C [Compound 39]	< 70	–	–	≤ 50	–	–	–	–	–	≤ 35	E (E is ≦35%)	50 to 75	E (E is ≦35%)	≤ 35	≤ 35	E (E is ≦35%)
CCOc1cc(C(=O)N2CC[C@H](O)C2)ccc1Nc1cc2c(cn1)N(C)C(=O)c1occc1N2C [Compound 17]	> 85	–	–	≤ 50	–	–	–	–	–	≤ 35	E (E is ≦35%)	75 to 90	E (E is ≦35%)	≤ 35	≤ 35	E (E is ≦35%)
CCOc1cc(C(=O)N2CCC(NC)C2)ccc1Nc1cc2c(cn1)N(C)C(=O)c1occc1N2C (stereo not drawn) [Compound 43]	> 85	–	–	≤ 50	–	–	–	–	–	≤ 35	E (E is ≦35%)	> 90	E (E is ≦35%)	≤ 35	≤ 35	E (E is ≦35%)
CN1C(=O)c2ccccc2N(C)c2cc(N[C@H]3CC[C@H](NC4=NCCO4)CC3)ncc21 [Compound 45]	< 70	≤ 35	E (E is ≦35%)	101 to 500	75 to 90	E (E is ≦35%)	≤ 35	≤ 35	E (E is ≦35%)	–	–	–	–	–	–	–
CCOc1cc(C(=O)N2CCN(CCO)CC2)ccc1Nc1cc2c(cn1)N(C)C(=O)c1ccccc1N2C [Compound 37]	70 to 85	–	–	≤ 50	–	–	–	–	–	≤ 35	E (E is ≦35%)	75 to 90	E (E is ≦35%)	≤ 35	≤ 35	E (E is ≦35%)
CCOc1cc(C(=O)N2CCCCC2)ccc1Nc1cc2c(cn1)N(C)C(=O)c1ccccc1N2C [Compound 12]	70 to 85	≤ 35	E (E is ≦35%)	101 to 500	75 to 90	E (E is ≦35%)	≤ 35	≤ 35	E (E is ≦35%)	–	–	–	–	–	–	–
CCOc1cc(C(=O)N2CC[C@@H](N3CCCC3)C2)ccc1Nc1cc2c(cn1)N(C)C(=O)c1ccccc1N2C [Compound 24]	> 85	–	–	≤ 50	–	–	–	–	–	≤ 35	E (E is ≦35%)	> 90	E (E is ≦35%)	≤ 35	≤ 35	E (E is ≦35%)

Reference: patent US20170008888A1 (KYORIN PHARMACEUTICAL CO., LTD., priority 2014, published 2017)
